Where two headings read alike, the source gives them in different places.
Columns and labels:
Format in all cases: cell-based
[1] = tested on: Pyricularia oryzae; experiment: microbe, parasite or virus in culture; conditions: for Observed efficacy: single active compound
[2] = tested on: Botrytis cinerea; experiment: Activity against the grey mold Botrytis cinerea in the microtiterplate test
[3] = tested on: Septoria tritici; experiment: Activity against leaf blotch on wheat caused by Septoria tritici (microtiterplate test)
[4] = tested on: Sclerotinia sclerotiorum; experiment: Activity against Sclerotinia sclerotiorum in the microtiterplate test; conditions: Sclerotinia sclerotiorum, 168 h, read-out: Observed efficacy
[5] = single active compound, 0.063 ppm
[6] = Botrytis cinerea, 168 h, single active compound, 1 ppm, read-out: Observed efficacy
[7] = Pyricularia oryzae, 168 h, read-out: Observed efficacy
[8] = Zymoseptoria tritici, 168 h, single active, 1 ppm, read-out: Observed efficacy
[9] = Botrytis cinerea, 168 h, single active compound, 4 ppm, read-out: Observed efficacy
[10] = Botrytis cinerea, 168 h, single active compound, read-out: Observed efficacy
[11] = Zymoseptoria tritici, 168 h, single active, 0.25 ppm, read-out: Observed efficacy
[12] = Zymoseptoria tritici, 168 h, single active, 4 ppm, read-out: Observed efficacy
[13] = Zymoseptoria tritici, 168 h, single active, read-out: Observed efficacy
[14] = Zymoseptoria tritici, 168 h, single active, 0.016 ppm, read-out: Observed efficacy
[15] = single active compound, 0.25 ppm
[16] = Zymoseptoria tritici, 168 h, read-out: Observed efficacy
[17] = Zymoseptoria tritici, 168 h, single active, 0.063 ppm, read-out: Observed efficacy
[18] = Zymoseptoria tritici, 168 h, single active, 0.004 ppm, read-out: Observed efficacy
[19] = Botrytis cinerea, 168 h, read-out: Observed efficacy
[20] = Botrytis cinerea, 168 h, single active compound, 0.063 ppm, read-out: Observed efficacy

Cc1ccc(C(=O)OCc2ccc(Oc3ccccc3)cc2)c(N)n1 [Aminopyrifen, aminopyrifen]
Observed efficacy ([1]; 0.001 ppm): 0%
Observed efficacy ([1]; 0.004 ppm): 6%
Observed efficacy ([1]; 0.016 ppm): 36%

CO/C=C(/C(=O)OC)c1ccccc1Oc1cc(Oc2ccccc2C#N)ncn1 [Azoxystrobin, azoxystrobin]
Observed efficacy [2, 5]: 5%
Observed efficacy ([1]; 0.004 ppm): 4%
Observed efficacy ([1]; 0.016 ppm): 44%
Observed efficacy ([3]; single active, 0.004 ppm): 5%
Observed efficacy ([3]; single active, 0.016 ppm): 2%
Observed efficacy ([3]; single active, 0.063 ppm): 26%

O=C(Nc1ccccc1-c1ccc(Cl)cc1)c1cccnc1Cl [Boscalid, boscalid]
inhibition of growth at 1 ppm [2, 6]: 63%
inhibition of growth at 0.25 ppm [1, 7]: 2%
inhibition of growth at 4 ppm [1, 7]: 10%
inhibition of growth at 1 ppm [3, 8]: 58%

COc1cc(C2=NC(C)(C)C(F)(F)c3ccccc32)cnc1C(F)F [Compound 1-4]
inhibition of growth at 1 ppm [2, 6]: 12%
inhibition of growth at 4 ppm [2, 9]: 21%
inhibition of growth at 16 ppm [2, 10]: 41%
inhibition of growth at 0.063 ppm [1, 7]: 18%
inhibition of growth at 0.25 ppm [1, 7]: 23%
inhibition of growth at 1 ppm [1, 7]: 29%
inhibition of growth at 4 ppm [1, 7]: 42%
inhibition of growth at 0.25 ppm [3, 11]: 7%
inhibition of growth at 1 ppm [3, 8]: 8%
inhibition of growth at 4 ppm [3, 12]: 1%
inhibition of growth at 16 ppm [3, 13]: 17%

Cc1cc(C2CC2)nc(Nc2ccccc2)n1 [Cyprodinil, cyprodinil]
inhibition of growth at 4 ppm [2, 9]: 53%
inhibition of growth at 1 ppm [1, 7]: 50%
inhibition of growth at 4 ppm [1, 7]: 61%
inhibition of growth at 4 ppm [3, 12]: 10%

CC1COC(Cn2cncn2)(c2ccc(Oc3ccc(Cl)cc3)cc2Cl)O1 (centres unmarked) [Difenoconazol, difenoconazole]
inhibition of growth at 0.25 ppm ([2]; Botrytis cinerea, 168 h, single active compound, 0.25 ppm, read-out: Observed efficacy): 21%
inhibition of growth at 0.063 ppm [1, 7]: 2%
inhibition of growth at 0.25 ppm [1, 7]: 11%
inhibition of growth at 0.016 ppm [3, 14]: 22%

CNC(=O)/C(=N/OC)c1ccccc1COc1cc(C)ccc1C [Dimoxystrobin, dimoxystrobin]
Observed efficacy [2, 5]: 0%
Observed efficacy [2, 15]: 12%
Observed efficacy ([3]; single active, 0.016 ppm): 2%
Observed efficacy ([3]; single active, 0.063 ppm): 27%

COc1ccnc(C(=O)N[C@@H](C)C(=O)O[C@@H](C)C(c2ccc(F)cc2)c2ccc(F)cc2)c1OC(C)=O [Florylpicoxamid, florylpicoxamid]
Observed efficacy [2, 15]: 2%
Observed efficacy ([2]; single active compound, 1 ppm): 12%
Observed efficacy ([1]; 0.016 ppm): 49%
Observed efficacy ([3]; single active, 0.063 ppm): 54%
Observed efficacy ([3]; single active, 0.25 ppm): 79%

O=[N+]([O-])c1cc(C(F)(F)F)c(Cl)c([N+](=O)[O-])c1Nc1ncc(C(F)(F)F)cc1Cl [Fluazinam, fluazinam]
inhibition of growth at 0.25 ppm [4, 15]: 58%
inhibition of growth at 0.063 ppm [1, 7]: 6%

N#Cc1c[nH]cc1-c1cccc2c1OC(F)(F)O2 [Fludioxonil, fludioxonil]
inhibition of growth at 0.016 ppm [4]: 13%
inhibition of growth at 0.004 ppm [1, 7]: 16%
inhibition of growth at 0.016 ppm [1, 7]: 35%
inhibition of growth at 0.063 ppm [1, 7]: 40%
inhibition of growth at 0.25 ppm [3, 16]: 10%

CC1CC(C)(C)c2c(F)ccc(NC(=O)c3cn(C)nc3C(F)F)c21 (centres unmarked) [Fluindapyr, fluindapyr]
Observed efficacy [2, 15]: 30%
Observed efficacy ([1]; 1 ppm): 41%
Observed efficacy ([3]; single active, 0.25 ppm): 22%
Observed efficacy ([3]; single active, 1 ppm): 67%

O=C(NCCc1ncc(C(F)(F)F)cc1Cl)c1ccccc1C(F)(F)F [Fluopyram, fluopyram]
inhibition of growth at 0.25 ppm [1, 7]: 7%
inhibition of growth at 0.25 ppm [3, 11]: 23%

Cn1cc(C(=O)Nc2ccccc2-c2cc(F)c(F)c(F)c2)c(C(F)F)n1 [Fluxapyroxad, fluxapyroxad]
Observed efficacy [2, 5]: 28%
Observed efficacy ([1]; 0.063 ppm): 8%
Observed efficacy ([3]; single active, 0.063 ppm): 24%

C=CCOC(Cn1ccnc1)c1ccc(Cl)cc1Cl (centres unmarked) [Imazalil, imazalil]
inhibition of growth at 1 ppm [2, 6]: 54%
inhibition of growth at 1 ppm [1, 7]: 20%

Cc1cc(OC(C)C)ccc1C(=O)C(C)(C)NC(=O)c1sccc1C [Isofetamid, isofetamid]
Observed efficacy ([2]; single active compound, 1 ppm): 68%
Observed efficacy ([1]; 1 ppm): 1%
Observed efficacy ([1]; 4 ppm): 10%
Observed efficacy ([3]; single active, 0.25 ppm): 44%

CC(C)c1ccc(Cl)cc1CN(C(=O)c1c(C(F)F)nn(C)c1F)C1CC1 [Isoflucypram, isoflucypram]
Observed efficacy [2, 15]: 59%
Observed efficacy ([1]; 1 ppm): 14%
Observed efficacy ([3]; single active, 0.063 ppm): 72%

CNC(=O)C(OC)c1ccccc1COc1cc(C)ccc1C (centres unmarked) [Mandestrobin, mandestrobin]
Observed efficacy ([1]; 1 ppm): 9%
Observed efficacy ([3]; single active, 1 ppm): 11%

CC(O)(Cn1cncn1)c1ccc(Oc2ccc(Cl)cc2)cc1C(F)(F)F (centres unmarked) [Mefentrifluconazol, mefentrifluconazole]
Observed efficacy ([2]; single active compound, 0.016 ppm): 10%
Observed efficacy ([1]; 0.016 ppm): 7%

CC#Cc1cc(C)nc(Nc2ccccc2)n1 [Mepanipyrim, mepanipyrim]
inhibition of growth at 1 ppm [2, 6]: 63%
inhibition of growth at 4 ppm [2, 9]: 72%
inhibition of growth at 0.25 ppm [1, 7]: 3%
inhibition of growth at 1 ppm [1, 7]: 45%
inhibition of growth at 4 ppm [1, 7]: 64%

COCC(=O)N(c1c(C)cccc1C)C(C)C(=O)OC (centres unmarked) [Metalaxyl, metalaxyl]
inhibition of growth at 4 ppm [2, 9]: 19%
inhibition of growth at 1 ppm [1, 7]: 4%
inhibition of growth at 4 ppm [1, 7]: 11%

CC1(C)CCC(Cc2ccc(Cl)cc2)C1(O)Cn1cncn1 (centres unmarked) [Metconazol]
Observed efficacy ([3]; single active, 0.063 ppm): 30%

Cc1cccc(-n2nnn(C)c2=O)c1COc1ccn(-c2ccc(Cl)cc2)n1 [Methyltetraprol, metyltetrapole]
Observed efficacy ([1]; 0.016 ppm): 24%
Observed efficacy ([3]; single active, 0.004 ppm): 5%
Observed efficacy ([3]; single active, 0.016 ppm): 22%

COc1cc(C)c(C(=O)c2c(OC)ccc(Br)c2C)c(OC)c1OC [Metrafenon, metrafenone]
inhibition of growth at 4 ppm [2, 9]: 3%
inhibition of growth at 16 ppm [2, 10]: 18%
inhibition of growth at 1 ppm [1, 7]: 2%
inhibition of growth at 4 ppm [1, 7]: 7%
inhibition of growth at 4 ppm [3, 12]: 4%
inhibition of growth at 16 ppm [3, 13]: 16%

C=CCOC1=NS(=O)(=O)c2ccccc21 [Probenazol, probenazole]
inhibition of growth at 63 ppm [2, 10]: 22%
inhibition of growth at 4 ppm [1, 7]: 2%
inhibition of growth at 16 ppm [1, 7]: 12%
inhibition of growth at 4 ppm [3, 12]: 4%

OC(Cc1ccccc1Cl)(Cn1nc[nH]c1=S)C1(Cl)CC1 (centres unmarked) [Prothioconazol, prothioconazole]
inhibition of growth at 0.25 ppm [1, 7]: 12%
inhibition of growth at 0.063 ppm [3, 17]: 1%

CON(C(=O)c1cn(C)nc1C(F)F)C(C)Cc1c(Cl)cc(Cl)cc1Cl (centres unmarked) [Pydiflumetofen, pydiflumetofen]
Observed efficacy ([1]; 1 ppm): 44%

COC(=O)N(OC)c1ccccc1COc1ccn(-c2ccc(Cl)cc2)n1 [Pyraclostrobin, pyraclostrobin]
inhibition of growth at 0.001 ppm [1, 7]: 4%
inhibition of growth at 0.004 ppm [1, 7]: 14%
inhibition of growth at 0.004 ppm [3, 18]: 7%
inhibition of growth at 0.016 ppm [3, 14]: 52%

O=C1CCc2cccc3c2N1CC3 [Pyroquilon, pyroquilon]
inhibition of growth at 1 ppm [2, 19]: 2%
inhibition of growth at 1 ppm [1, 7]: 7%

S1SSSSSSS1 [Sulfur, sulfur]
inhibition of growth at 4 ppm [1, 7]: 54%
inhibition of growth at 1 ppm [3, 16]: 18%

FC(F)C(F)(F)OCC(Cn1cncn1)c1ccc(Cl)cc1Cl (centres unmarked) [Tetraconazol, tetraconazole]
inhibition of growth at 0.063 ppm [2, 20]: 5%
inhibition of growth at 0.063 ppm [1, 7]: 7%
inhibition of growth at 0.004 ppm [3, 18]: 6%
inhibition of growth at 0.063 ppm [3, 17]: 12%

Cc1nc(C(F)(F)F)c(C(=O)Nc2c(Br)cc(OC(F)(F)F)cc2Br)s1 [Thifluzamid, thifluzamide]
inhibition of growth at 4 ppm [2, 19]: 37%
inhibition of growth at 1 ppm [1, 7]: 2%
inhibition of growth at 4 ppm [1, 7]: 16%
inhibition of growth at 4 ppm [3, 16]: 69%

Cc1ccc(NC(=O)c2snnc2C)cc1Cl [Tiadinil, tiadinil]
inhibition of growth at 16 ppm [2, 10]: 6%
inhibition of growth at 63 ppm [2, 10]: 19%
inhibition of growth at 4 ppm [1, 7]: 2%
inhibition of growth at 16 ppm [1, 7]: 10%
inhibition of growth at 63 ppm [1, 7]: 21%
inhibition of growth at 4 ppm [3, 12]: 21%
inhibition of growth at 16 ppm [3, 13]: 18%
inhibition of growth at 63 ppm ([3]; Zymoseptoria tritici, 168 h, single active, 63 ppm, read-out: Observed efficacy): 30%

Cc1cccc2sc3nncn3c12 [Tricyclazol, tricyclazole]
inhibition of growth at 4 ppm [2, 9]: 2%
inhibition of growth at 4 ppm [1, 7]: 6%

CON=C(C(=O)OC)c1ccccc1CON=C(C)c1cccc(C(F)(F)F)c1 [Trifloxystrobin, trifloxystrobin]
inhibition of growth at 0.063 ppm [2, 20]: 4%
inhibition of growth at 0.004 ppm [1, 7]: 8%
inhibition of growth at 0.016 ppm [1, 7]: 23%
inhibition of growth at 0.016 ppm [3, 14]: 27%

CC1(C)CCC(=Cc2ccc(Cl)cc2)C1(O)Cn1cncn1 (centres unmarked) [Triticonazol, triticonazole]
inhibition of growth at 1 ppm [1, 7]: 10%

OCC1=C[C@H](N[C@H]2C[C@H](CO)[C@@H](O[C@@H]3O[C@H](CO)[C@@H](O)[C@H](O)[C@H]3O)[C@H](O)[C@H]2O)[C@H](O)[C@@H](O)[C@@H]1O [Validamycin, validamycin]
inhibition of growth at 63 ppm [1, 7]: 10%

Cc1nc2c(F)c(F)ccc2cc1Oc1cccc(F)c1C(C)(C)O [drawing 29]
inhibition of growth at 4 ppm [1, 7]: 50%

Cc1nc2c(F)c(F)ccc2cc1Oc1cccc(F)c1C(C)(C)O [drawing 43]
inhibition of growth at 1 ppm [3, 16]: 45%

Mancozeb
Observed efficacy ([3]; single active, 1 ppm): 16%

inpyrfluxam
Observed efficacy [2, 15]: 44%
Observed efficacy ([3]; single active, 0.25 ppm): 22%

metiram
Observed efficacy ([1]; 4 ppm): 8%
Observed efficacy ([3]; single active, 1 ppm): 2%
Observed efficacy ([3]; single active, 4 ppm): 4%

prohexadione-calcium [Prohexadion-ca]
Observed efficacy ([1]; 63 ppm): 8%
Observed efficacy ([3]; single active, 63 ppm): 12%
